Laboratory results: patent US12673961B2 (Agios Pharmaceuticals, Inc., priority 2022, dated 2026)

Biological target: T1, human PAH with the R408W mutation (Homo sapiens, UniProt P00439, R408W)
T1 construct: expressed in transfected cells
T1 sequence (P00439 1-452 R408W): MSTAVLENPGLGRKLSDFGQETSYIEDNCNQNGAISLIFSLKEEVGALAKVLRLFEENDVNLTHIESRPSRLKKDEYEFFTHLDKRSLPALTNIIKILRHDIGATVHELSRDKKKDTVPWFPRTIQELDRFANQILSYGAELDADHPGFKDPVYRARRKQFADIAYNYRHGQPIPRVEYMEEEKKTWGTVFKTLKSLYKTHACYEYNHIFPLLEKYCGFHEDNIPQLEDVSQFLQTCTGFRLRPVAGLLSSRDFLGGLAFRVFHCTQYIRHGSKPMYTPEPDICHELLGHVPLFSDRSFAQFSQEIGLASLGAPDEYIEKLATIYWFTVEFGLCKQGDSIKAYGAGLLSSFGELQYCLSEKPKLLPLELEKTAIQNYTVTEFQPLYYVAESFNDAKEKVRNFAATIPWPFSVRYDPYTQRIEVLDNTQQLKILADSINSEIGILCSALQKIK
Test: Cell Based Phenylalanine Flux Assay;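 note: Ten-point dose curve from 2-fold serial dilutions, run in duplicate at 0.5% DMSO final, tracer step used 20 µM sepiapterin and 800 µM labeled phenylalanine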
Conditions: A375 cells expressing human R408W PAH; 24 hrs compound incubation; 13C-Tyrosine by LC-MS; average where tested multiple times; read-out: AC50
Procedure: Compounds were resuspended in DMSO, and 2-fold serial dilutions were performed to generate a 10-point dose curve. Compounds were added to plated cells in a total volume of 100 μl, and a final DMSO concentration of 0.5%. Each compound was tested in duplicate. Following compound addition, cells were placed in a 5% CO2, 37° C. tissue culture incubator for 24 hrs. […] 20 μM sepiapterin and 800 μM 13C9,15N-Phenylalanine were added. After 4 hours, cell media was removed. An aliquot of 10 μl of cell media was combined with 200 μl of extraction buffer (80% acetonitrile/20% H2O) for each well. Determination of ^13C-Tyrosine concentration was assessed by liquid chromatography mass spectrometry.
Where a compound was tested multiple times, the average value of the tests is reported.

SMILES | AC50 [nM]
O=C(c1nnc(-c2cnn(C(F)F)c2)o1)N1CCc2[nH]cnc2[C@@H]1c1cc2c(F)cccn2n1 [Example 797, (R)-(5-(1-(difluoromethyl)-1H-pyrazol-4-yl)-1,3,4-oxadiazol-2-yl)(4-(4-fluoropyrazolo[1,5-a]pyridin-2-yl)-6,7-dihydro-1H-imidazo[4,5-c]pyridin-5(4H)-yl)methanone] | > 5000
Cc1cccc2cc([C@@H]3c4nc[nH]c4CCN3C(=O)c3nnc(-c4cnn(C)c4)o3)nn12 [Example 800, (S)-(5-(1-methyl-1H-pyrazol-4-yl)-1,3,4-oxadiazol-2-yl)(4-(7-methylpyrazolo[1,5-a]pyridin-2-yl)-6,7-dihydro-1H-imidazo[4,5-c]pyridin-5(4H)-yl)methanone] | 500 to 1000
Cc1cccc2cc([C@@H]3c4nc[nH]c4CCN3C(=O)c3nnc(-c4ccn(C)n4)o3)nn12 [Example 802, (S)-(5-(1-methyl-1H-pyrazol-3-yl)-1,3,4-oxadiazol-2-yl)(4-(7-methylpyrazolo[1,5-a]pyridin-2-yl)-6,7-dihydro-1H-imidazo[4,5-c]pyridin-5(4H)-yl)methanone] | < 500
Cc1ccc2cc([C@@H]3c4nc[nH]c4CCN3C(=O)c3oc(C(C)(C)O)nc3C(F)F)nn2c1 [Example 804] | < 500
O=C(c1nnc(-c2ccccn2)o1)N1CCc2[nH]cnc2[C@@H]1c1cc2c(C(F)(F)F)cccn2n1 [Example 827, (R)-(5-(pyridin-2-yl)-1,3,4-oxadiazol-2-yl)(4-(4-(trifluoromethyl)pyrazolo [1,5-a]pyridin-2-yl)-6,7-dihydro-1H-imidazo[4,5-c]pyridin-5(4H)-yl)methanone] | > 5000
Cc1cccn2nc([C@H]3c4nc[nH]c4CCN3C(=O)c3ncnn3C)cc12 [Example 839, (R)-(1-methyl-1H-1,2,4-triazol-5-yl)(4-(4-methylpyrazolo[1,5-a]pyridin-2-yl)-6,7-dihydro-1H-imidazo[4,5-c]pyridin-5(4H)-yl)methanone] | 1000 to 5000
Cc1cccn2nc([C@@H]3c4nc[nH]c4CCN3C(=O)c3cc(C(F)F)nn3C)cc12 [Example 867, (S)-(3-(difluoromethyl)-1-methyl-1H-pyrazol-5-yl)(4-(4-methylpyrazolo[1,5-a]pyridin-2-yl)-6,7-dihydro-1H-imidazo[4,5-c]pyridin-5(4H)-yl)methanone] | < 500
Cc1cccn2nc([C@H]3c4nc[nH]c4CCN3C(=O)c3nnc(-c4ccc(F)cn4)o3)cc12 [Example 874, (R)-(5-(5-fluoropyridin-2-yl)-1,3,4-oxadiazol-2-yl)(4-(4-methylpyrazolo[1,5-a]pyridin-2-yl)-6,7-dihydro-1H-imidazo[4,5-c]pyridin-5(4H)-yl)methanone] | > 5000
Cc1cccn2nc([C@@H]3c4nc[nH]c4CCN3C(=O)c3nnc(-c4cccnc4)o3)cc12 [Example 894, (S)-(4-(4-methylpyrazolo [1,5-a]pyridin-2-yl)-6,7-dihydro-1H-imidazo[4,5-c]pyridin-5(4H)-yl)(5-(pyridin-3-yl)-1,3,4-oxadiazol-2-yl) methanone] | < 500
Cc1cccc2cc([C@H]3c4nc[nH]c4CCN3C(=O)c3nnc(-c4cnn(C(F)F)c4)o3)nn12 [Example 915, (R)-(5-(1-(difluoromethyl)-1H-pyrazol-4-yl)-1,3,4-oxadiazol-2-yl)(4-(7-methylpyrazolo[1,5-a]pyridin-2-yl)-6,7-dihydro-1H-imidazo[4,5-c]pyridin-5(4H)-yl)methanone] | > 5000
Cc1cccn2nc([C@H]3c4nc[nH]c4CCN3C(=O)c3nnc(C4CC4)o3)cc12 [Example 925, (R)-(5-cyclopropyl-1,3,4-oxadiazol-2-yl)(4-(4-methylpyrazolo[1,5-a]pyridin-2-yl)-6,7-dihydro-1H-imidazo[4,5-c]pyridin-5(4H)-yl)methanone] | > 5000
Cc1cccc2cc([C@H]3c4nc[nH]c4CCN3C(=O)c3nnc(C(C)(C)F)o3)nn12 [Example 939, (R)-(5-(2-fluoropropan-2-yl)-1,3,4-oxadiazol-2-yl)(4-(7-methylpyrazolo[1,5-a]pyridin-2-yl)-6,7-dihydro-1H-imidazo[4,5-c]pyridin-5(4H)-yl)methanone] | > 5000
O=C(c1ocnc1C(F)F)N1CCc2[nH]cnc2[C@H]1c1cc2cccc(Cl)n2n1 [Example 958, (S)-(4-(7-chloropyrazolo [1,5-a]pyridin-2-yl)-6,7-dihydro-1H-imidazo[4,5-c]pyridin-5(4H)-yl)(4-(difluoromethyl)oxazol-5-yl)methanone] | < 500
O=C(c1nnc(-c2cnccn2)o1)N1CCc2[nH]cnc2[C@H]1c1cc2c(F)cccn2n1 [Example 962, (S)-(4-(4-fluoropyrazolo[1,5-a]pyridin-2-yl)-6,7-dihydro-1H-imidazo[4,5-c]pyridin-5(4H)-yl)(5-(pyrazin-2-yl)-1,3,4-oxadiazol-2-yl)methanone] | < 500
CC(C)(F)c1nnc(C(=O)N2CCc3[nH]cnc3[C@H]2c2cc3cccc(Cl)n3n2)o1 [Example 969, (S)-(4-(7-chloropyrazolo [1,5-a]pyridin-2-yl)-6,7-dihydro-1H-imidazo[4,5-c]pyridin-5(4H)-yl)(5-(2-fluoropropan-2-yl)-1,3,4-oxadiazol-2-yl)methanone] | < 500
O=C(c1nnc(-c2cnn(C(F)F)c2)o1)N1CCc2[nH]cnc2[C@H]1c1cc2cccc(F)n2n1 [Example 984, (S)-(5-(1-(difluoromethyl)-1H-pyrazol-4-yl)-1,3,4-oxadiazol-2-yl)(4-(7-fluoropyrazolo[1,5-a]pyridin-2-yl)-6,7-dihydro-1H-imidazo [4,5-c]pyridin-5(4H)-yl)methanone] | 500 to 1000
Cc1cccn2nc([C@@H]3c4nc[nH]c4CCN3C(=O)c3nnc(C(C)(C)C)o3)cc12 [Example 1022, (S)-(5-(tert-butyl)-1,3,4-oxadiazol-2-yl)(4-(4-methylpyrazolo[1,5-a]pyridin-2-yl)-6,7-dihydro-1H-imidazo[4,5-c]pyridin-5(4H)-yl)methanone] | < 500

The remaining lines, values ahead:

AC50 [nM] | SMILES
> 5000 | Cc1cccc2cc([C@H]3c4nc[nH]c4CCN3C(=O)c3nnc(-c4ccccn4)o3)nn12 [Example 799, (R)-(4-(7-methylpyrazolo [1,5-a]pyridin-2-yl)-6,7-dihydro-1H-imidazo[4,5-c]pyridin-5(4H)-yl)(5-(pyridin-2-yl)-1,3,4-oxadiazol-2-yl) methanone]
500 to 1000 | Cc1cccn2nc([C@@H]3c4nc[nH]c4CCN3C(=O)c3nnc(-c4cn(C)cn4)o3)cc12 [Example 806, (S)-(5-(1-methyl-1H-imidazol-4-yl)-1,3,4-oxadiazol-2-yl)(4-(4-methylpyrazolo[1,5-a]pyridin-2-yl)-6,7-dihydro-1H-imidazo[4,5-c]pyridin-5(4H)-yl)methanone]
< 500 | O=C(c1nnc(-c2ccccn2)o1)N1CCc2[nH]cnc2[C@H]1c1cc2c(C(F)(F)F)cccn2n1 [Example 826, (S)-(5-(pyridin-2-yl)-1,3,4-oxadiazol-2-yl)(4-(4-(trifluoromethyl)pyrazolo [1,5-a]pyridin-2-yl)-6,7-dihydro-1H-imidazo[4,5-c]pyridin-5(4H)-yl)methanone]
> 5000 | O=C(c1nnc(-c2cnn(C3CCC3)c2)o1)N1CCc2[nH]cnc2[C@@H]1c1cc2c(F)cccn2n1 [Example 833, (R)-(5-(1-cyclobutyl-1H-pyrazol-4-yl)-1,3,4-oxadiazol-2-yl)(4-(4-fluoropyrazolo[1,5-a]pyridin-2-yl)-6,7-dihydro-1H-imidazo [4,5-c]pyridin-5(4H)-yl) methanone]
< 500 | O=C(c1ccnn1C1CC1)N1CCc2[nH]cnc2[C@H]1c1cc2c(F)cccn2n1 [Example 848, (S)-(1-cyclopropyl-1H-pyrazol-5-yl)(4-(4-fluoropyrazolo[1,5-a]pyridin-2-yl)-6,7-dihydro-1H-imidazo[4,5-c]pyridin-5(4H)-yl)methanone]
< 500 | Cc1cc(-c2nnc(C(=O)N3CCc4[nH]cnc4[C@H]3c3cc4c(F)cccn4n3)o2)nn1C [Example 883, (S)-(5-(1,5-dimethyl-1H-pyrazol-3-yl)-1,3,4-oxadiazol-2-yl)(4-(4-fluoropyrazolo[1,5-a]pyridin-2-yl)-6,7-dihydro-1H-imidazo[4,5-c]pyridin-5(4H)-yl)methanone]
< 500 | Cc1cccc2cc([C@@H]3c4nc[nH]c4CCN3C(=O)c3nnc(-c4ncccc4F)o3)nn12 [Example 912, (S)-(5-(3-fluoropyridin-2-yl)-1,3,4-oxadiazol-2-yl)(4-(7-methylpyrazolo[1,5-a]pyridin-2-yl)-6,7-dihydro-1H-imidazo[4,5-c]pyridin-5(4H)-yl)methanone]
< 500 | O=C(c1nnc(-c2cnccn2)o1)N1CCc2[nH]cnc2[C@H]1c1cc2cccc(Cl)n2n1 [Example 979, (S)-(4-(7-chloropyrazolo [1,5-a]pyridin-2-yl)-6,7-dihydro-1H-imidazo[4,5-c]pyridin-5(4H)-yl)(5-(pyrazin-2-yl)-1,3,4-oxadiazol-2-yl)methanone]
> 5000 | Cc1cccn2nc([C@H]3c4nc[nH]c4CCN3C(=O)c3nnc(C(C)(C)C)o3)cc12 [Example 1023, (R)-(5-(tert-butyl)-1,3,4-oxadiazol-2-yl)(4-(4-methylpyrazolo[1,5-a]pyridin-2-yl)-6,7-dihydro-1H-imidazo[4,5-c]pyridin-5(4H)-yl)methanone]
